Tests used:
Test in all cases: KINOMEscan competition binding
Conditions in all cases: compound 10.0 µM
AURKB (human) = AURKB (human) (UniProt Q96GD4)
CDK16 (human) = CDK16 (human) (UniProt Q00536)
CDK9 (human) = CDK9 (human) (UniProt P50750)
CHUK (human) = CHUK (human) (UniProt O15111)
CSNK2A1 (human) = CSNK2A1 (human) (UniProt P68400)
CaMK1 (human) = CaMK1 (human) (UniProt Q14012)
DAPK1 (human) = DAPK1 (human) (UniProt P53355)
EPHA7 (human) = EPHA7 (human) (UniProt Q15375)
FLT4 (human) = FLT4 (human) (UniProt P35916)
FRK (human) = FRK (human) (UniProt P42685)
ICK (human) = ICK (human) (UniProt Q9UPZ9)
IRAK4 (human) = IRAK4 (human) (UniProt Q9NWZ3)
MAP3K13 (human) = MAP3K13 (human) (UniProt O43283)
MAP3K7 (human) = MAP3K7 (human) (UniProt O43318)
MAP3K9 (human) = MAP3K9 (human) (UniProt P80192)
MAPK12 (human) = MAPK12 (human) (UniProt P53778)
MAPK6 (human) = MAPK6 (human) (UniProt Q16659)
MTOR (human) = MTOR (human) (UniProt P42345)
NEK5 (human) = NEK5 (human) (UniProt Q6P3R8)
PAK3 (human) = PAK3 (human) (UniProt O75914)
PAK6 (human) = PAK6 (human) (UniProt Q9NQU5)
PIK3C2B (human) = PIK3C2B (human) (UniProt O00750)
PIK3CB (human) = PIK3CB (human) (UniProt P42338)
PRKCE (human) = PRKCE (human) (UniProt Q02156)
PRKD1 (human) = PRKD1 (human) (UniProt Q15139)
PRPF4B (human) = PRPF4B (human) (UniProt Q13523)
PTK2 (human) = PTK2 (human) (UniProt Q05397)
RIPK4 (human) = RIPK4 (human) (UniProt P57078)
RPS6KA5 KD1 (human) = RPS6KA5 KD1 (human) (UniProt O75582)
RPS6KA6 KD1 (human) = RPS6KA6 KD1 (human) (UniProt Q9UK32)
SGK110 (human) = SGK110 (human) (UniProt P0C264)
SIK2 (human) = SIK2 (human) (UniProt Q9H0K1)
SRPK2 (human) = SRPK2 (human) (UniProt P78362)
STK24 (human) = STK24 (human) (UniProt Q9Y6E0)
STK32C (human) = STK32C (human) (UniProt Q86UX6)
TIE1 (human) = TIE1 (human) (UniProt P35590)
TNK2 (human) = TNK2 (human) (UniProt Q07912)
TNNI3K (human) = TNNI3K (human) (UniProt Q59H18)
TSSK1B (human) = TSSK1B (human) (UniProt Q9BXA7)
[1] = tested on: EGFR (human), P00533 [A750P; 747-749 del]

Sequence of TNNI3K (human) (Q59H18 whole entry, looked up): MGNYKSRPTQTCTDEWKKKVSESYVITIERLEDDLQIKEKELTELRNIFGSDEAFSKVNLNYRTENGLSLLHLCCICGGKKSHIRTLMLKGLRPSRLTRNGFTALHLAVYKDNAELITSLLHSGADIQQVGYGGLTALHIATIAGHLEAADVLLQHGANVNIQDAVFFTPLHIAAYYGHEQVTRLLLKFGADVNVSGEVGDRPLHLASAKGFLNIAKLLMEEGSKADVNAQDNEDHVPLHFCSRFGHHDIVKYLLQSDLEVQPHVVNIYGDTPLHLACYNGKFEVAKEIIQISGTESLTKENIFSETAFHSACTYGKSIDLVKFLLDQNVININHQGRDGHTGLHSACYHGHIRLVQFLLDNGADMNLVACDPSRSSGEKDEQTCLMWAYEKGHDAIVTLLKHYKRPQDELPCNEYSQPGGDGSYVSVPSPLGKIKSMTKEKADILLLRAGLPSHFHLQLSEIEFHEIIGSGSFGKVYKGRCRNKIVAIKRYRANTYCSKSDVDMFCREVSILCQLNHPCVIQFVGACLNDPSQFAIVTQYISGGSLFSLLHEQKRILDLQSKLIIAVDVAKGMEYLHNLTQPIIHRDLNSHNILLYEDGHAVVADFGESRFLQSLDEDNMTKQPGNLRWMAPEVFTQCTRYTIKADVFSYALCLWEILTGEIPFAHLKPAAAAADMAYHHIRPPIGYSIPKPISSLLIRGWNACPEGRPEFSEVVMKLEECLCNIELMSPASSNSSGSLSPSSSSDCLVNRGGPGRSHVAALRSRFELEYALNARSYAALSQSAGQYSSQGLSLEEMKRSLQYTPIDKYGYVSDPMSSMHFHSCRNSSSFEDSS
Sequence of MAP3K13 (human) (O43283 whole entry, looked up): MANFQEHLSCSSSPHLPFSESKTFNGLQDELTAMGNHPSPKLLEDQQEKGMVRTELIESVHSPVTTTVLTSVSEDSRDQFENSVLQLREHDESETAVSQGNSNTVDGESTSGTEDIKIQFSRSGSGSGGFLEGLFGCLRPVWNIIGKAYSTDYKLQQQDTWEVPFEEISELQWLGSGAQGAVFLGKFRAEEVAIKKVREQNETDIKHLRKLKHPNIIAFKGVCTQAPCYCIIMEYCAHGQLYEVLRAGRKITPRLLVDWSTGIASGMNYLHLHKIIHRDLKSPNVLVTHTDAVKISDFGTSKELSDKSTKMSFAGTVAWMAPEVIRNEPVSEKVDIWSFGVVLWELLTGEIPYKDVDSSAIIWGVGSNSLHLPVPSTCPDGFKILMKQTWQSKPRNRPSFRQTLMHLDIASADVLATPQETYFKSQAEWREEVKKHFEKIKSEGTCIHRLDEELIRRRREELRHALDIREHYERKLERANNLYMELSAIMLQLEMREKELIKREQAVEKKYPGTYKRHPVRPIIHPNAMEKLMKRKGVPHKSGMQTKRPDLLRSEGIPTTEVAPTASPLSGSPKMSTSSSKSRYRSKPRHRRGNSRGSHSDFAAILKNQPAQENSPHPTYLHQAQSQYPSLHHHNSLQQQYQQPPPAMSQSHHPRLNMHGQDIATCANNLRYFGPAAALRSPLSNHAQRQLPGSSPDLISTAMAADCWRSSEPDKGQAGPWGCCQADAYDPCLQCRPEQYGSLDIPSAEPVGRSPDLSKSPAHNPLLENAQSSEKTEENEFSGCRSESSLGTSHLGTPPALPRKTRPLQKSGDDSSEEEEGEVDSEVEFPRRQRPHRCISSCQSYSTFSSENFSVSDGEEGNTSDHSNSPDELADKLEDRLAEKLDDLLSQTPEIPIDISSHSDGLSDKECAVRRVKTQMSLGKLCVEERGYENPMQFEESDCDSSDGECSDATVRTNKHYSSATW
Sequence of MAP3K9 (human) (P80192 whole entry, looked up): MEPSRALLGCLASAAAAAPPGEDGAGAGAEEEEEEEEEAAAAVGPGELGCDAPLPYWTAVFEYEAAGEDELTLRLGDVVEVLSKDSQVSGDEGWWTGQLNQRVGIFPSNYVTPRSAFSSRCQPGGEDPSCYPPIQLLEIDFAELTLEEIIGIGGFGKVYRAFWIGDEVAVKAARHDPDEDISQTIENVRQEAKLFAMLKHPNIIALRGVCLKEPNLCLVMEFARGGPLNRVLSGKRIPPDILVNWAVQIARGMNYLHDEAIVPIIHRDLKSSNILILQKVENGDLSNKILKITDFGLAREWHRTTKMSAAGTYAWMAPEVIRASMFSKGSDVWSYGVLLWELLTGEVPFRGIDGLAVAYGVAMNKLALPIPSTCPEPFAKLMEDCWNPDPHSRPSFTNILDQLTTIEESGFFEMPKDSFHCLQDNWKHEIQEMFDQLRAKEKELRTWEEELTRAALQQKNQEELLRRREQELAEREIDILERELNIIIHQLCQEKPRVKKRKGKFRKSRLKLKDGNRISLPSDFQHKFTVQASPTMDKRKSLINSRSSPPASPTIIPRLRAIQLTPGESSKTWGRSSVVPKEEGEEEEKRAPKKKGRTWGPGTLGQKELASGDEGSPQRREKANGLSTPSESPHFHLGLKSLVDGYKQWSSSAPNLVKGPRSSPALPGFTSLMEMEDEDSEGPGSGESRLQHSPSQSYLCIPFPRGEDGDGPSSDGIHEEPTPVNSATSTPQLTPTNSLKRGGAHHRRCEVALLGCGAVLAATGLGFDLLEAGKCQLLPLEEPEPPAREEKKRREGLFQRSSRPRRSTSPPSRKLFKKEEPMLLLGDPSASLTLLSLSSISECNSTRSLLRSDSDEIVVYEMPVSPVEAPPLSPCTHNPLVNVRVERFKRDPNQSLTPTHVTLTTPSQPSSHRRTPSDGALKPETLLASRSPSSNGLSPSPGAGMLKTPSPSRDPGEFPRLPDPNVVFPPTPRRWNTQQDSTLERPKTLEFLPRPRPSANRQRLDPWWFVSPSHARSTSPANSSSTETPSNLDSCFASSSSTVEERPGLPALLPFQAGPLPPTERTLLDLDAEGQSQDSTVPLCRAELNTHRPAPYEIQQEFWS
Sequence of PRKD1 (human) (Q15139 whole entry, looked up): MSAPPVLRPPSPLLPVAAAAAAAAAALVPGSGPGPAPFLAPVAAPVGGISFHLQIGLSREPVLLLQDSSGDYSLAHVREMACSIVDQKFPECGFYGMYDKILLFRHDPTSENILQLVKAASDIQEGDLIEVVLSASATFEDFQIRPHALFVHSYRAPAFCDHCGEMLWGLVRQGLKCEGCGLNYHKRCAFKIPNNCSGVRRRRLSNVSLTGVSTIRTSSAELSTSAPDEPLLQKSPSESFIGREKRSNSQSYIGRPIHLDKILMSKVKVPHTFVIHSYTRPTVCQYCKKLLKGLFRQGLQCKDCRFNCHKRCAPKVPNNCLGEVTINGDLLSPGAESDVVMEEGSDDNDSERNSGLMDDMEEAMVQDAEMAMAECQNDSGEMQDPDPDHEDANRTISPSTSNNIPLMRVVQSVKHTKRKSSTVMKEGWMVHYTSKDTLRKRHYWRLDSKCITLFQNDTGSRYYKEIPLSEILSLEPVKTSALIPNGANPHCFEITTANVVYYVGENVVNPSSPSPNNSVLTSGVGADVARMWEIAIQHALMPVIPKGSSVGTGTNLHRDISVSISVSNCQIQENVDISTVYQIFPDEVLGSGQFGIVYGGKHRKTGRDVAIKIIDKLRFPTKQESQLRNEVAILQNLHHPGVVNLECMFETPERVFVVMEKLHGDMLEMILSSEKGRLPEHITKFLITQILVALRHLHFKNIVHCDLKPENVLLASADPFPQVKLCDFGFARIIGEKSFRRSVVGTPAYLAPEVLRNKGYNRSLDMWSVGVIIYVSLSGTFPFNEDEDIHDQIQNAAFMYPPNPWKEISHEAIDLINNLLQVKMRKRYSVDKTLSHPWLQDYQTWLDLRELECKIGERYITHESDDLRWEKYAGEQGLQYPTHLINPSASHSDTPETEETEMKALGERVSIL
Sequence of PAK6 (human) (Q9NQU5 whole entry, looked up): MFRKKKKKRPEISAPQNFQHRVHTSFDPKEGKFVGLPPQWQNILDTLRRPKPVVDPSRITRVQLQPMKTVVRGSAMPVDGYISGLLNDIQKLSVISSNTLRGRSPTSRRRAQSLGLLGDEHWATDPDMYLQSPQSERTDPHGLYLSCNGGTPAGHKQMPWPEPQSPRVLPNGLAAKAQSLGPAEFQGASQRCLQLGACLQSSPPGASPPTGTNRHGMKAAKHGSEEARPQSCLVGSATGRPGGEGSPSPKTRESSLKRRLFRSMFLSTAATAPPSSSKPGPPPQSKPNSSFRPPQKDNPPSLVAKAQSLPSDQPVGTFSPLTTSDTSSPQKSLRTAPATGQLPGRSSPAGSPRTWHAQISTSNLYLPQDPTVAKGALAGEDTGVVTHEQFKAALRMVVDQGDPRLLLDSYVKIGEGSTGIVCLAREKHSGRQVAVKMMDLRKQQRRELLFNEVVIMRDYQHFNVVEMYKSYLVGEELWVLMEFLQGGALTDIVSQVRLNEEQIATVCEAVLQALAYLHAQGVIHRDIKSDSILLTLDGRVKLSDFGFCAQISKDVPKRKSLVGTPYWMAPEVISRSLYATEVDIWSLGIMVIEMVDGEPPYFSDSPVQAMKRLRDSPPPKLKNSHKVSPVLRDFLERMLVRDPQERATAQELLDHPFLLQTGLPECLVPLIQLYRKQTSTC
Sequence of CSNK2A1 (human) (P68400 whole entry, looked up): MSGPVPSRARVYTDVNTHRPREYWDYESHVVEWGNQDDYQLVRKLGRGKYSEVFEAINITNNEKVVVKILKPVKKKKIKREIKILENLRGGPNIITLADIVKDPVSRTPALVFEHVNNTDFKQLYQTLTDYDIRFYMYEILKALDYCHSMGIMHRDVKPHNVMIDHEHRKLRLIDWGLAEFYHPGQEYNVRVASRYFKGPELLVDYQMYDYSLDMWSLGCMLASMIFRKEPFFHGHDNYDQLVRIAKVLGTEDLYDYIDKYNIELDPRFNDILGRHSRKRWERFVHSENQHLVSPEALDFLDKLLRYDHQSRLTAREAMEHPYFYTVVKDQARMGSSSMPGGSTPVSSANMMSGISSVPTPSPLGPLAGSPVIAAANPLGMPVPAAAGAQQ

Structure (SMILES) | kinase still bound, per cent of control (AURKB (human)) | kinase still bound, per cent of control (CDK16 (human)) | kinase still bound, per cent of control (CDK9 (human)) | kinase still bound, per cent of control (CHUK (human)) | kinase still bound, per cent of control (CSNK2A1 (human)) | kinase still bound, per cent of control (CaMK1 (human)) | kinase still bound, per cent of control (DAPK1 (human)) | kinase still bound, per cent of control (EPHA7 (human)) | kinase still bound, per cent of control (FLT4 (human)) | kinase still bound, per cent of control (FRK (human)) | kinase still bound, per cent of control (ICK (human)) | kinase still bound, per cent of control (IRAK4 (human)) | kinase still bound, per cent of control (MAP3K13 (human)) | kinase still bound, per cent of control (MAP3K7 (human)) | kinase still bound, per cent of control (MAP3K9 (human)) | kinase still bound, per cent of control (MAPK12 (human)) | kinase still bound, per cent of control (MAPK6 (human)) | kinase still bound, per cent of control (MTOR (human)) | kinase still bound, per cent of control (NEK5 (human)) | kinase still bound, per cent of control (PAK3 (human)) | also measured
N#C/C(=C1/Nc2ccccc2S1)c1ccnc(NCCc2cccnc2)n1 | 89% | 44% | 60% | 42% | 0.4% | 73% | 32% | 99% | 100% | 100% | 64% | 48% | 100% | 22% | 74% | 13% | 26% | 34% | 100% | 100% | kinase still bound, per cent of control (PAK6 (human)): 78%; kinase still bound, per cent of control (PIK3C2B (human)): 19%; kinase still bound, per cent of control (PIK3CB (human)): 55%; kinase still bound, per cent of control (PRKCE (human)): 92%; kinase still bound, per cent of control (PRKD1 (human)): 100%; kinase still bound, per cent of control (PRPF4B (human)): 79%; kinase still bound, per cent of control (PTK2 (human)): 100%; kinase still bound, per cent of control (RIPK4 (human)): 8%; kinase still bound, per cent of control (RPS6KA5 KD1 (human)): 100%; kinase still bound, per cent of control (RPS6KA6 KD1 (human)): 28%; kinase still bound, per cent of control (SGK110 (human)): 100%; kinase still bound, per cent of control (SIK2 (human)): 82%; kinase still bound, per cent of control (SRPK2 (human)): 86%; kinase still bound, per cent of control (STK24 (human)): 80%; kinase still bound, per cent of control (STK32C (human)): 99%; kinase still bound, per cent of control (TIE1 (human)): 100%; kinase still bound, per cent of control (TNK2 (human)): 91%; kinase still bound, per cent of control (TNNI3K (human)): 93%; kinase still bound, per cent of control (TSSK1B (human)): 100%
COc1cc2c(Nc3ccc(NC(=O)c4ccccc4)cc3)ncnc2cc1OCCCN1CCOCC1 | 0.15% | 64% | 100% | 100% | 87% | 55% | 84% | 84% | 83% | 82% | 100% | 51% | 27% | 49% | 70% | 49% | 100% | 70% | 100% | 87% | kinase still bound, per cent of control [1]: 22%; kinase still bound, per cent of control (PAK6 (human)): 95%; kinase still bound, per cent of control (PIK3C2B (human)): 100%; kinase still bound, per cent of control (PIK3CB (human)): 81%; kinase still bound, per cent of control (PRKCE (human)): 100%; kinase still bound, per cent of control (PRKD1 (human)): 99%; kinase still bound, per cent of control (PRPF4B (human)): 97%; kinase still bound, per cent of control (PTK2 (human)): 62%; kinase still bound, per cent of control (RIPK4 (human)): 56%; kinase still bound, per cent of control (RPS6KA5 KD1 (human)): 100%; kinase still bound, per cent of control (RPS6KA6 KD1 (human)): 68%; kinase still bound, per cent of control (SGK110 (human)): 100%; kinase still bound, per cent of control (SIK2 (human)): 63%; kinase still bound, per cent of control (SRPK2 (human)): 86%; kinase still bound, per cent of control (STK24 (human)): 46%; kinase still bound, per cent of control (STK32C (human)): 100%; kinase still bound, per cent of control (TIE1 (human)): 27%; kinase still bound, per cent of control (TNK2 (human)): 5.9%; kinase still bound, per cent of control (TNNI3K (human)): 94%; kinase still bound, per cent of control (TSSK1B (human)): 100%
CCc1nc(-c2cccc(C)c2)c(-c2ccnc(NC(=O)c3ccccc3)c2)s1 | 100% | 100% | 95% | 100% | 100% | 85% | 72% | 92% | 27% | 36% | 100% | 100% | 100% | 64% | 94% | 100% | 85% | 100% | 100% | 82% | kinase still bound, per cent of control (PAK6 (human)): 98%; kinase still bound, per cent of control (PIK3C2B (human)): 100%; kinase still bound, per cent of control (PIK3CB (human)): 95%; kinase still bound, per cent of control (PRKCE (human)): 87%; kinase still bound, per cent of control (PRKD1 (human)): 65%; kinase still bound, per cent of control (PRPF4B (human)): 80%; kinase still bound, per cent of control (PTK2 (human)): 96%; kinase still bound, per cent of control (RIPK4 (human)): 90%; kinase still bound, per cent of control (RPS6KA5 KD1 (human)): 100%; kinase still bound, per cent of control (RPS6KA6 KD1 (human)): 94%; kinase still bound, per cent of control (SGK110 (human)): 100%; kinase still bound, per cent of control (SIK2 (human)): 62%; kinase still bound, per cent of control (SRPK2 (human)): 73%; kinase still bound, per cent of control (STK24 (human)): 69%; kinase still bound, per cent of control (STK32C (human)): 35%; kinase still bound, per cent of control (TIE1 (human)): 96%; kinase still bound, per cent of control (TNK2 (human)): 78%; kinase still bound, per cent of control (TNNI3K (human)): 86%; kinase still bound, per cent of control (TSSK1B (human)): 87%

From the kinase profiling compilation of Christmann-Franck et al. (2016)
